For four compounds, mutagenic call results are on record in PubChem BioAssay AID1259407 (Chemical Carcinogenesis Research Information System (CCRIS), 2018).

Active and inactive are the calls of the source. How the calls were made is not given here.

The subject of this data set is CCRIS mutagenicity, Ames/micronucleus/aberration tests. Put plainly: CCRIS mutagenicity studies.
Setting [1] is: Test System: AMES SALMONELLA TYPHIMURIUM, Strain/Indicator: TA98, Metabolic Activation: HAMSTER, LIVER, S-9, AROCLOR 1254 (10%), Method: PREINCUBATION
The mark [2] stands for this setting: Test System: AMES SALMONELLA TYPHIMURIUM, Strain/Indicator: TA98, Metabolic Activation: NONE, Method: PREINCUBATION
Where [3] appears, read: Test System: AMES SALMONELLA TYPHIMURIUM, Strain/Indicator: TA98, Metabolic Activation: RAT, LIVER, S-9, AROCLOR 1254 (10%), Method: PREINCUBATION
[4] abbreviates: Test System: AMES SALMONELLA TYPHIMURIUM, Strain/Indicator: TA100, Metabolic Activation: HAMSTER, LIVER, S-9, AROCLOR 1254 (10%), Method: PREINCUBATION
Setting [5] is: Test System: AMES SALMONELLA TYPHIMURIUM, Strain/Indicator: TA100, Metabolic Activation: NONE, Method: PREINCUBATION
The mark [6] stands for this setting: Test System: AMES SALMONELLA TYPHIMURIUM, Strain/Indicator: TA100, Metabolic Activation: RAT, LIVER, S-9, AROCLOR 1254 (10%), Method: PREINCUBATION
Setting [7] is: Test System: AMES SALMONELLA TYPHIMURIUM, Strain/Indicator: TA1535, Metabolic Activation: HAMSTER, LIVER, S-9, AROCLOR 1254 (10%), Method: PREINCUBATION
Where [8] appears, read: Test System: AMES SALMONELLA TYPHIMURIUM, Strain/Indicator: TA1535, Metabolic Activation: NONE, Method: PREINCUBATION
Where [9] appears, read: Test System: AMES SALMONELLA TYPHIMURIUM, Strain/Indicator: TA1535, Metabolic Activation: RAT, LIVER, S-9, AROCLOR 1254 (10%), Method: PREINCUBATION
The mark [10] stands for this setting: Test System: AMES SALMONELLA TYPHIMURIUM, Strain/Indicator: TA1537, Metabolic Activation: NONE, Method: PREINCUBATION

As to `O=C(CCl)c1ccccc1`, the mutagenic call reads like this: under setting [1], “inactive; negative”; (Test System: AMES SALMONELLA TYPHIMURIUM, Strain/Indicator: TA98, Metabolic Activation: NONE) “inactive; negative”; under setting [2], “inactive; negative”; under setting [3], “inactive; negative”; (Test System: AMES SALMONELLA TYPHIMURIUM, Strain/Indicator: TA98, Metabolic Activation: RAT, LIVER, S-9, PHENOBARBITONE AND BETA-NAPHTHOFLAVONE) “inactive; negative”; under setting [4], “inactive; negative”. In addition, the mutagenic call is, setting by setting: (Test System: AMES SALMONELLA TYPHIMURIUM, Strain/Indicator: TA100, Metabolic Activation: NONE) “inactive; negative”; under setting [5], “inactive; negative”; under setting [6], “inactive; negative”; (Test System: AMES SALMONELLA TYPHIMURIUM, Strain/Indicator: TA100, Metabolic Activation: RAT, LIVER, S-9, PHENOBARBITONE AND BETA-NAPHTHOFLAVONE) “inactive; negative”; under setting [7], “inactive; negative”; under setting [8], “inactive; negative”. Moreover, the mutagenic call runs as follows: under setting [9], “inactive; negative”; (Test System: AMES SALMONELLA TYPHIMURIUM, Strain/Indicator: TA1537, Metabolic Activation: HAMSTER, LIVER, S-9, AROCLOR 1254 (10%), Method: PREINCUBATION) “inactive; negative”; under setting [10], “inactive; negative”; (Test System: AMES SALMONELLA TYPHIMURIUM, Strain/Indicator: TA1537, Metabolic Activation: RAT, LIVER, S-9, AROCLOR 1254 (10%), Method: PREINCUBATION) “inactive; negative”; (Test System: AMES SALMONELLA TYPHIMURIUM, Strain/Indicator: TA1538, Metabolic Activation: NONE) “inactive; negative”; (Test System: AMES SALMONELLA TYPHIMURIUM, Strain/Indicator: TA1538, Metabolic Activation: RAT, LIVER, S-9, PHENOBARBITONE AND BETA-NAPHTHOFLAVONE) “inactive; negative”.

As to `c1cc2c3c(cccc3c1)CC2`, the mutagenic call runs as follows: (Test System: AMES SALMONELLA TYPHIMURIUM, Strain/Indicator: TA97, Metabolic Activation: HAMSTER, LIVER, S-9, AROCLOR 1254 (10%), Method: PREINCUBATION) “inactive; negative”; (Test System: AMES SALMONELLA TYPHIMURIUM, Strain/Indicator: TA97, Metabolic Activation: HAMSTER, LIVER, S-9, AROCLOR 1254 (30%), Method: PREINCUBATION) “inactive; negative”; (Test System: AMES SALMONELLA TYPHIMURIUM, Strain/Indicator: TA97, Metabolic Activation: NONE, Method: PREINCUBATION) “inactive; negative”; (Test System: AMES SALMONELLA TYPHIMURIUM, Strain/Indicator: TA97, Metabolic Activation: RAT, LIVER, S-9, AROCLOR 1254 (10%), Method: PREINCUBATION) “inactive; negative”; (Test System: AMES SALMONELLA TYPHIMURIUM, Strain/Indicator: TA97, Metabolic Activation: RAT, LIVER, S-9, AROCLOR 1254 (30%), Method: PREINCUBATION) “inactive; negative”; under setting [1], “inactive; negative”. The mutagenic call is “inactive; negative” (Test System: AMES SALMONELLA TYPHIMURIUM, Strain/Indicator: TA98, Metabolic Activation: HAMSTER, LIVER, S-9, AROCLOR 1254 (30%), Method: PREINCUBATION); “inactive; negative” under setting [2]; “inactive; negative” under setting [3]; “inactive; negative” (Test System: AMES SALMONELLA TYPHIMURIUM, Strain/Indicator: TA98, Metabolic Activation: RAT, LIVER, S-9, AROCLOR 1254 (30%), Method: PREINCUBATION); “inactive; negative” under setting [4]; “inactive; negative” (Test System: AMES SALMONELLA TYPHIMURIUM, Strain/Indicator: TA100, Metabolic Activation: HAMSTER, LIVER, S-9, AROCLOR 1254 (30%), Method: PREINCUBATION). Moreover, the mutagenic call is “inactive; negative” under setting [5]; “inactive; negative” under setting [6]; “inactive; negative” (Test System: AMES SALMONELLA TYPHIMURIUM, Strain/Indicator: TA100, Metabolic Activation: RAT, LIVER, S-9, AROCLOR 1254 (30%), Method: PREINCUBATION); “inactive; negative” under setting [7]; “inactive; negative” (Test System: AMES SALMONELLA TYPHIMURIUM, Strain/Indicator: TA1535, Metabolic Activation: HAMSTER, LIVER, S-9, AROCLOR 1254 (30%), Method: PREINCUBATION); “inactive; negative” under setting [8]. The mutagenic call is “inactive; negative” under setting [9]; “inactive; negative” (Test System: AMES SALMONELLA TYPHIMURIUM, Strain/Indicator: TA1535, Metabolic Activation: RAT, LIVER, S-9, AROCLOR 1254 (30%), Method: PREINCUBATION); “inactive; negative” (Test System: AMES SALMONELLA TYPHIMURIUM, Strain/Indicator: TA1537, Metabolic Activation: HAMSTER, LIVER, S-9, AROCLOR 1254 (30%), Method: PREINCUBATION); “inactive; negative” under setting [10]; “inactive; negative” (Test System: AMES SALMONELLA TYPHIMURIUM, Strain/Indicator: TA1537, Metabolic Activation: RAT, LIVER, S-9, AROCLOR 1254 (30%), Method: PREINCUBATION).

Regarding `CCC(=O)CN(CC(=O)CC)N=O`, the mutagenic call (Test System: CHINESE HAMSTER V-79, Strain/Indicator: V-79/OUABAIN, Metabolic Activation: HAMSTER, HEPATOCYTES, Method: CELL-MEDIATED) was “active; positive”.

As to `ClC(Cl)=C(Cl)c1c(Cl)c(Cl)c(Cl)c(Cl)c1Cl`, the mutagenic call by setting is: (Test System: AMES SALMONELLA TYPHIMURIUM, Strain/Indicator: TA98, Metabolic Activation: NONE, Method: STANDARD PLATE) “inactive; negative”; (Test System: AMES SALMONELLA TYPHIMURIUM, Strain/Indicator: TA98, Metabolic Activation: RAT, LIVER, S-9, AROCLOR 1254, Method: STANDARD PLATE) “inactive; negative”; (Test System: AMES SALMONELLA TYPHIMURIUM, Strain/Indicator: TA100, Metabolic Activation: NONE, Method: STANDARD PLATE) “inactive; negative”; (Test System: AMES SALMONELLA TYPHIMURIUM, Strain/Indicator: TA100, Metabolic Activation: RAT, LIVER, S-9, AROCLOR 1254, Method: STANDARD PLATE) “inactive; negative”.
